Data on three compounds can be found in patent publication US6548515B1, “Dihydrofuro[3,4-b]quinolin-1-one compounds” (Les Laboratories Servier, priority 1999, dated 2003).

Assay [1] deals with human non-small-cell lung carcinoma, A549. Kind of assay: Cytotoxicity in vitro (Microculture Tetrazolium Assay), A549. The conditions noted are these: 96 h, A549 cells, incubated 4 days, inhibition of proliferation by 50%. In kind it is cell-based. Here is the method: (§1) Three cell lines are used:
1 human non-small-cell lung carcinoma, A549,
(§2) The cells are cultured in complete RPMI 1640 culture medium containing 10% foetal calf serum, 2 mM glutamine, 50 units/ml of penicillin, 50 μg/ml of streptomycin and 10 mM Hepes, pH=7.4. The cells are distributed in microplates and exposed to the cytotoxic compounds. The cells are then incubated for 2 days (L1210) or 4 days (A549, HT29). The number of viable cells is then quantified by means of a calorimetric assay, the Microculture Tetrazolium Assay (Cancer Res. 1987, 47, 939-942).
(§3) The results are expressed as IC50, the concentration of cytotoxic agent that inhibits the proliferation of the treated cells by 50%.

The subject of another assay is murine leukaemia, L1210. Put plainly: Cytotoxicity in vitro (Microculture Tetrazolium Assay), L1210. It counts as cell-based. The conditions noted are these: Mus musculus, 48 h; L1210 cells, incubated 2 days, inhibition of proliferation by 50%. On the procedure: as §1
1 murine leukaemia, L1210,
as §2, §3

Assay [2] deals with human colon carcinoma, HT29. Put plainly: Cytotoxicity in vitro (Microculture Tetrazolium Assay), HT29. In kind it is cell-based. Particulars: HT-29, 96 h, HT29 cells, incubated 4 days, inhibition of proliferation by 50%. On the procedure: as §1
1 human colon carcinoma, HT29
as §2, §3

Another assay relates to P388 (murine leukaemia). Put plainly: In vivo anti-tumour activity on P388 leukaemia. Also noted: species or system female BDF1 mice. Particulars: P388 i.p. in BDF1 mice, intraperitoneal route on day 1, active from the 50 mg/kg dose. On the procedure: Line P388 (murine leukaemia) was supplied by the National Cancer Institute (Frederick, USA). The tumour cells (10^6 cells) were inoculated on day 0 into the peritoneal cavity of female BDF1 mice (Iffa-Credo, France) weighing from 18 to 20 g (groups of 6 animals). The products were administered by the intraperitoneal route on day 1 (D1).
The anti-tumour activity is expressed as % T/C: [formula]

One may read the IC50 as the midpoint of a concentration-inhibition curve. Read a low IC50 as higher potency. Regarding `COc1cc(C2C3=C(COC3=O)N(C)c3cc4c(cc32)OCO4)cc(OC)c1OC` (racemic) [Example 1, (±)-4-Methyl-6,7-methylenedioxy-9-(3,4,5-trimethoxyphenyl)-4,9-dihydrofuro[3,4-b]quinolin-1(3H)-one], the IC50 in assay [1] amounted to 102 nM; in the assay on murine leukaemia, L1210, 53 nM; in assay [2], 104 nM. For the same compound, in the assay with P388 (murine leukaemia), the “T/C (survival of the treated animals)” value is on record as not below 200%.
For `COc1cc(CN2C3=C(C(=O)OC3)C(c3cc(OC)c(OC)c(OC)c3)c3cc4c(cc32)OCO4)cc(OC)c1O` (racemic) [Example 8, (±)-4-(3,5-Dimethoxy-4-hydroxybenzyl)-6,7-methylenedioxy-9-(3,4,5-trimethoxyphenyl)-4,9-dihydrofuro[3,4-b]quinolin-1(3H)-one], the IC50 worked out at 147 nM in assay [1]; 62 nM in the assay with murine leukaemia, L1210; 153 nM in assay [2].
`COc1cc(C2C3=C(COC3=O)Nc3cc4c(cc32)OCO4)cc(OC)c1OC` (racemic) [Example 10, (±)-6,7-Methylenedioxy-9-(3,4,5-trimethoxyphenyl)-4,9-dihydrofuro[3,4-b]quinolin-1(3H)-one]: the IC50 in assay [1] was 22 nM; in the assay on murine leukaemia, L1210 it was 12 nM; in assay [2], 18 nM.
